pEC50: −log10 of the molar value. Where two headings read alike, the source gives them in different places.
Key:
[1] = test system: HIV-1 Strain C (G048G/V, V082A); test: microbe, parasite or virus in culture; type: cell-based; details: clinical isolate Strain C; read-out: C EC50
Experimental: (§1) MT4-LTR-EGFP cells were obtained by transfecting MT4 cells with a selectable construct encompassing the sequences coding for the HIV long terminal repeat (LTR) as a promoter for the expression of enhanced green fluorescent protein (EGFP) and subsequent selection of permanently transfected cells.
(§2) The antiviral activity on different HIV-1 strains, was determined in a cell-based virus replication assay. Here MT4-LTR-EGFP cells (150,000 cells/ml) are infected (multiplicity of infection [MOI] of 0.0025) in the presence or absence of different inhibitor concentrations. Two methodologies for read-out were used, either quantification of GFP-fluoresence on day 3 post-infection, or quantification of cell-viability using rezazurin (as described by Fields, R. D., and M. V. Lancaster (1993) Am. Biotechnol. Lab. 11:48-50) on day 4 post infection.
(§3) In the following Table, Strains A, B, and C are clinical isolates that include the following protease inhibitor resistance mutations in the protease domain (background mutations are not mentioned).

[2] = test system: HIV-1 Strain A (M046I, I084V); test: microbe, parasite or virus in culture; type: cell-based; details: clinical isolate Strain A; read-out: A EC50
Experimental: as §1, §2, §3

[3] = test system: HIV-1 Strain B (M046I, I050V); test: microbe, parasite or virus in culture; type: cell-based; details: clinical isolate Strain B; read-out: B EC50
Experimental: as §1, §2, §3

HIV-1 wild-type strain = test: General antiviral assay, cell-based virus replication in MT4-LTR-EGFP cells, wild-type strain
Experimental: as §1, §2

HIV-1 IIIB = test: 50% HS-Rezazurin: antiviral assay in the presence of 50% human serum, MT-4 cells, resazurin cell viability; type: cell-based
Experimental: For the Antiviral assay in the presence of 50% human serum MT-4 cells were infected with HIV-1 IIIB at a MOI of 0.001 to 0.01 CCID50/cell in RPMI1640 medium. Following 1 h of incubation, cells were washed and plated into a 96-well plate containing serial dilutions of compound in the presence of 10% fetal calf serum (FCS), or 50% human serum. After 4 days incubation, the EC50 in the presence of 50% human serum was determined by a cell viability assay using resazurin.
The last column lists the results for the wild-type strain IIB in the presence of 50% human serum MT-4 cells.

mock-infected MT4 cells = test: General toxicity assay on mock-infected MT4 cells with CMV-EGFP reporter (CC50); type: cell-based
[4] = wild-type strain IIIB, MT4-LTR-EGFP cells
[5] = MT4LTR cells, read-out: TOX-MT4LTR (CC50)
[6] = mock-infected MT4 cells with CMV-EGFP reporter, read-out: TOX-MT4CMV (CC50)

Compound	pEC50 [1]	pEC50 [2]	pEC50 [3]	pEC50 (HIV-1 wild-type strain; [4])	pEC50 (HIV-1 IIIB)	CC50 (mock-infected MT4 cells; [5])	CC50 (mock-infected MT4 cells; [6])	CC50 (mock-infected MT4 cells; read-out: TOX-MT4CMV (CC50))	pEC50 (HIV-1 wild-type strain; read-out: HIV-IIIB EC50)
COC(=O)N[C@H](C(=O)N[C@@H](Cc1ccc(-c2ccc(OC)nc2)cc1)[C@@H](O)C[C@@H](Cc1ccccc1Cl)C(=O)N[C@H]1c2cc(Cl)ccc2OC[C@H]1O)C(C)(C)C [Compound 58]	8.74	8.22	8.60	8.41	7.88	> 32000 nM	–	–	–
COC(=O)NC(C(=O)NC(Cc1ccc(-c2cnc(OC)cn2)cc1)C(O)CC(Cc1ccccc1F)C(=O)NC1c2cc(Cl)ccc2OCC1O)C(C)(C)C (centres unmarked) [Compound 23]	8.70	8.43	8.62	8.52	7.91	–	19000 nM	–	–
CNC(=O)[C@@H](NC(=O)[C@H](Cc1ccccc1F)C[C@H](O)[C@H](Cc1ccc(-c2ccc(OC)nc2)cc1)NC(=O)[C@@H](NC(=O)OC)C(C)(C)C)C(C)(C)C [Compound 88]	8.52	8.32	8.55	8.47	8.00	–	> 32000 nM	–	–
COC(=O)N[C@H](C(=O)N[C@@H](Cc1ccc(-c2ccc(OC)nc2)cc1)[C@@H](O)C[C@@H](Cc1cccc(F)c1)C(=O)N[C@H]1c2cccc(F)c2OC[C@H]1O)C(C)(C)C [Compound 40]	9.10	8.80	9.00	8.62	7.95	> 32000 nM	> 32000 nM	–	–
COC(=O)N[C@H](C(=O)N[C@@H](Cc1ccc(-c2ccc(OC)nc2)cc1)[C@@H](O)C[C@@H](Cc1ccccc1F)C(=O)N[C@H]1c2cc(F)cc(Cl)c2OC[C@H]1O)C(C)(C)C [Compound 56]	9.15	8.85	8.92	8.59	8.08	> 32000 nM	–	–	–
CN(C)c1ccc(-c2ccc(C[C@H](NC(=O)[C@@H](NC(=O)C3(C#N)CC3)C(C)(C)C)[C@@H](O)C[C@@H](Cc3ccccc3F)C(=O)N[C@H]3c4cc(F)ccc4OC[C@H]3O)cc2)cn1 [Compound 35]	8.70	8.40	8.66	8.68	8.08	> 32000 nM	–	> 32000 nM	–
COC(=O)N[C@H](C(=O)N[C@@H](Cc1ccc(-c2cncc(OC)n2)cc1)[C@@H](O)C[C@@H](Cc1ccccc1F)C(=O)N[C@H]1c2cc(Cl)ccc2OC[C@H]1O)C(C)(C)C [Compound 24]	8.77	–	8.72	8.48	7.79	–	> 32000 nM	–	–
COC(=O)N[C@H](C(=O)N[C@@H](Cc1ccc(-c2ccc(OC)nc2)cc1)[C@@H](O)C[C@@H](Cc1ccccc1F)C(=O)N[C@H]1c2cc(F)ccc2OC[C@H]1O)C(C)(C)C [Compound 59]	–	9.05	9.22	8.92	8.24	> 32000 nM	–	–	–
CN(C)c1ccc(-c2ccc(CC(NC(=O)C(NC(=O)CN3CCCC3)C(C)(C)C)C(O)CC(Cc3cccc(Cl)c3)C(=O)NC3c4cc(F)ccc4OCC3O)cc2)cn1 (centres unmarked) [Compound 9]	8.43	–	8.18	8.06	7.50	–	> 27000 nM	–	–
CNC(=O)[C@@H](NC(=O)[C@H](Cc1ccccc1F)C[C@H](O)[C@H](Cc1ccc(-c2ccc(N(C)C)nc2)cc1)NC(=O)O[C@H]1CO[C@H]2OCC[C@H]21)C(C)(C)C [Compound 69]	8.24	–	8.15	–	7.58	–	> 32000 nM	–	7.94
CCOc1ccc(-c2ccc(C[C@H](NC(=O)[C@@H](NC(=O)OC)C(C)(C)C)[C@@H](O)C[C@@H](Cc3ccccc3F)C(=O)N[C@H]3c4cc(Cl)ccc4OC[C@H]3O)cc2)cn1 [Compound 44]	8.70	–	8.66	8.49	7.86	> 32000 nM	–	–	–
COCCOC(=O)N[C@H](C(=O)N[C@@H](Cc1ccc(-c2ccc(OC)nc2)cc1)[C@@H](O)C[C@@H](Cc1ccccc1Cl)C(=O)N[C@H]1c2cc(F)ccc2OC[C@H]1O)C(C)(C)C [Compound 57]	9.10	–	9.05	8.72	8.06	> 32000 nM	–	–	–
